The values that follow come from PMC11554538, “Region-independent active CNS net uptake of marketed H^+/OC antiporter system substrates” (Frontiers in Cellular Neuroscience, 2024).

The nature of data set [1]: in vitro. The conditions noted are these: rat.
For data set [2] the following is noted: rat, in vivo; for Cu,brainISF,ss (unbound steady-state concentration in brain interstitial fluid): male, Sprague-Dawley.
For data set [3] the following is noted: cited from earlier work.
Data set [4] can be described thus: in vitro. The following applies: rat; for fraction unbound at 6 h: pH 7.4, Unbound fraction in plasma, fu,plasma. On the procedure:
Equilibrium dialysis was employed to determine the fraction of unbound drug in plasma (fu,plasma), homogenates of whole-brain (fu,brain) and the CNS regions of interest (fu,ROI) including the frontal cortex, parietal cortex, cerebellum, striatum, hippocampus, and spinal cord. […] Briefly, a Teflon 96-well plate (model HTD96b, HTDialysis LLC, Gales Ferry, CT, USA) with a cellulose membrane with a 12–14 kDa molecular weight cutoff was used. The cellulose membrane was treated according to the recommendations from the manufacturer before starting the experiment (HTDialysis LLC, Gales Ferry, CT, USA). Fresh plasma (n=3 rats per drug) was obtained on the day of the experiment and the pH of the plasma was adjusted to 7.40 using H3PO4. […] Whole brain and CNS regions of interest (n = 3–4 rats per drug) were homogenized in 1:9 (w:v) PBS pH 7.40. Diluted brain samples were individually spiked to a final concentration of 1,000 nM. Hundred μL of undiluted spiked plasma samples or homogenates were dialyzed against equal volumes of PBS, pH 7.40, for 6 h at 37°C at 200 rpm in an incubator with orbital shaking (MaxQ4450 Thermo Fisher Scientific, NinoLab, Sweden). One to three technical replicates were tested per biological replicate. Drug recovery and thermostability in plasma and brain were analyzed in each experiment by sampling spiked samples before and after the 6-h incubation. […] At the end of the 6-h incubation, 50 μL PBS sample from the receiver chambers was transferred into a Corning® 0.33 mL round-bottom polypropylene 96-well plate (VWR, Stockholm, Sweden) containing 50 μL blank plasma or 1:9 (w:v) brain homogenate using a multichannel pipette. Immediately after this step, 50 μL spiked plasma or brain homogenate was taken from the donor chambers and added to the same 96-well plate containing 50 μL of blank PBS. The 96-well plate was sealed with aluminum film, vortexed and stored at −20°C pending bioanalysis. The fraction of unbound drug in plasma was assessed as a ratio between buffer and plasma concentrations. The unbound fraction of drug in the diluted (D) CNS tissue homogenate (fu,hD) was calculated as: […]

The nature of data set [5]: in vivo. The conditions noted are these: male, Sprague-Dawley, rat, iv.
Data set [6] in a line: in vitro. The conditions noted are these: rat. This is another data set of the same source.
The nature of data set [7]: in vivo. The conditions noted are these: male, Sprague-Dawley, rat.
For data set [8] the following is noted: male, Sprague-Dawley, rat, in vivo.
The conditions of data set [9]: rat, 5 h.
The mark [10] stands for this setting: cerebral microdialysis, ref Kitamura et al., 2016.
Where [11] appears, read: brain homogenate, pH 7.4, Unbound fraction fu,ROI (fu,brain).
Where [12] appears, read: tissue homogenate, pH 7.4, Unbound fraction fu,ROI.

Broadly, the fraction unbound is free concentration divided by total concentration. Higher therefore signals much free substance.

Where a name gives a salt, the structure may show the parent alone. Read-outs that look alike come from different tables or passages of the source.

Turning to `CC12CC3CC(C)(C1)CC(N)(C3)C2` [Memantine, memantine hydrochloride], in “in vitro [1]”, the Kp uu at 5 h was 2.11. The “Cu,brainISF,ss (unbound steady-state concentration in brain interstitial fluid)” value in data set [2] (4 h) is listed as 194.3±38.5 ng/g brain. Also, the “Kp,uu,ROI (unbound ROI-to-plasma concentration ratio)” value in [2] is “exceeding unity”. The “Reported Kp,uu” value is 2.03 in data set [3] (cerebral microdialysis, ref Kawase et al., 2021a) and 1.80 in [3] (setting [10]). In the data set “in vitro [4]” (plasma), this molecule came in with an unbound share (fraction unbound) at 6 h of 0.543 ± 0.037. This molecule also came in with a Kp at 4 h in “in vivo [5]” of 41.7.

The molecule `COc1cccc(C2(O)CCCCC2CN(C)C)c1` (centres unmarked) [Tramadol, tramadol hydrochloride] displayed a Kp uu in the data set “in vitro [1]” of 2.01. The molecule further registered a fraction unbound in the data set “in vitro [6]” (setting [11]) of 0.496 ± 0.128. In “in vitro [6]” (setting [12]), the fraction unbound was found to be 0.462 ± 0.064. The molecule also yielded a Kp uu at 4 h in the data set “in vivo [7]” of 1.49 ± 0.49. Further, in data set [2], the “Cu,brainISF,ss (unbound steady-state concentration in brain interstitial fluid)” value came to 95.0±9.4 and the “Kp,uu,ROI (unbound ROI-to-plasma concentration ratio)” value was “exceeding unity”. Further, the “Reported Kp,uu” value in data set [3] (in vivo) is 2.90 (Kitamura et al., [2016]) 2.30 (Kitamura et al., [2014]). The fraction unbound at 6 h in the data set “in vitro [4]” (undiluted rat plasma pH 7.40, 500 nM (memantine 500 ng/mL), 6 h, 37°C, mean ± SD) was found to be 0.827 ± 0.027. In data set [8], the “Ctot,CSF,ss (total CSF concentration at steady state, assumed equal to unbound)” value is reported as 47.7±8.2.

As to `COc1ccc(CN(CCN(C)C)c2ccccn2)cc1` [Pyrilamine, Pyrilamine maleate], the Kp uu at 5 h in “in vitro [1]” was found to be 1.88. In “in vitro [6]” (setting [11]), this molecule registered a fraction unbound at 6 h, 1000 nM of 0.093 ± 0.012. This molecule also had a fraction unbound at 6 h, 1000 nM in “in vitro [6]” (setting [12]) of 0.103 ± 0.013. In addition, the “Cu,brainISF,ss (unbound steady-state concentration in brain interstitial fluid)” value in data set [2] (4 h) is 21.6±2.0 ng/g brain. In addition, the “Kp,uu,ROI (unbound ROI-to-plasma concentration ratio)” value in data set [2] is listed as “exceeding unity”. The “Reported Kp,uu” value in data set [3] (setting [10]) is 2.50 (Kitamura et al., [2016]). For the same molecule, the fraction unbound at 6 h in the data set “in vitro [4]” (plasma) is 0.386 ± 0.093. In addition, in data set [8] (4 h), the “Ctot,CSF,ss (total CSF concentration at steady state, assumed equal to unbound)” value was determined as 7.7±1.9; the “Difference between mean Kp,uu,ROI in the whole brain and Kp,uu,CSF” value is 2.8 fold.

On to `CC(NC(C)(C)C)C(=O)c1cccc(Cl)c1` (centres unmarked) [Bupropion, bupropion hydrochloride], for which, in “in vitro [1]” (Kp,uu,cell,obs (observed unbound brain intracellular-to-extracellular concentration ratio)), the Kp uu at 5 h amounted to 3.12. In addition, the fraction unbound at 6 h, 1000 nM in the data set “in vitro [6]” (setting [11]) worked out at 0.209 ± 0.031; in “in vitro [6]” (setting [12]) it was 0.142 ± 0.004. Further, the “Cu,brainISF,ss (unbound steady-state concentration in brain interstitial fluid)” value in [2] (4 h) is listed as 9.3±4.6 ng/g brain. For the same molecule, in [2], the “Kp,uu,ROI (unbound ROI-to-plasma concentration ratio)” value is “exceeding unity”. Also, the “Kp,uu,cell,obs (observed unbound brain intracellular-to-extracellular concentration ratio)” value in data set [9] came out at 3.1. Further, the “Reported Kp,uu” value in data set [3] (cerebral microdialysis, ref Cremers et al., 2016) is 1.9 (Cremers et al., [2016]). In the data set “in vitro [4]” (6 h, pH 7.4), the “Unbound fraction in plasma, fu,plasma” value worked out at 0.327 ± 0.068. Moreover, the fraction unbound at 6 h in the data set “in vitro [4]” (plasma) stood at 0.33. Also, the “Ctot,CSF,ss (total CSF concentration at steady state, assumed equal to unbound)” value in data set [8] (4 h) was found to be 21.9±5.6.
